{"source": "ChEMBL document CHEMBL4402546", "about": "“Urea Derivatives in Modern Drug Discovery and Medicinal Chemistry” (J Med Chem, 2020)", "key": {"[1]": {"assay": "Half life in schizophrenic patient at 1.5 to 12.5 mg/day", "assay_type": "ADME", "details": "human, in vivo"}, "[2]": {"target": "Protease (Human immunodeficiency virus 1, UniProt Q9YQ12)", "sequence (Q9YQ12 whole entry)": "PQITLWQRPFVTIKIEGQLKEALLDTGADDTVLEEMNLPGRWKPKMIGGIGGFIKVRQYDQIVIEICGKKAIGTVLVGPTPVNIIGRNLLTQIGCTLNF", "assay": "Inhibition of HIV-1 protease by spectrofluorometric assay"}, "[3]": {"target": "Serine/threonine-protein kinase B-raf (Homo sapiens, UniProt P15056, V600E)", "sequence (P15056 2-766 V600E limits assumed)": "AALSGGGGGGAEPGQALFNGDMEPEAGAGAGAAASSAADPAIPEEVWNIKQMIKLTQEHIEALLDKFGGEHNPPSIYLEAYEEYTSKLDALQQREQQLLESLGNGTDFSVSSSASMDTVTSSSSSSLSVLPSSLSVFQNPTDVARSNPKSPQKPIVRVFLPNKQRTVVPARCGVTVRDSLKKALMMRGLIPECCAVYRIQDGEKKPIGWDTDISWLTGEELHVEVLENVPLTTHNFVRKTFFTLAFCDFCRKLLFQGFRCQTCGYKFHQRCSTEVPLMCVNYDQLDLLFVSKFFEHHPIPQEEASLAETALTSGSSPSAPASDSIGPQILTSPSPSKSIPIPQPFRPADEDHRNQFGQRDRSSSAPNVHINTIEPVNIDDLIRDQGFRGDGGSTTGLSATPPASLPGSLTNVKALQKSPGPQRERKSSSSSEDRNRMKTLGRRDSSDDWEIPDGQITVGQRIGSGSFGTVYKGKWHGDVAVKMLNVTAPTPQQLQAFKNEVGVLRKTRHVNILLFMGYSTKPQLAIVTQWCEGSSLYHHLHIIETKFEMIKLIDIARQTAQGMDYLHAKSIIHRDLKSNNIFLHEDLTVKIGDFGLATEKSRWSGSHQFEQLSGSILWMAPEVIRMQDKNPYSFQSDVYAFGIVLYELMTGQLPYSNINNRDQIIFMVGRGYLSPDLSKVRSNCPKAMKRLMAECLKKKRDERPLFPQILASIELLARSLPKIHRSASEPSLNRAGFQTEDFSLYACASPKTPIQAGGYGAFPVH", "assay": "Inhibition of BRAF V600E mutant (unknown origin)"}, "[4]": {"target": "RAF proto-oncogene serine/threonine-protein kinase (Homo sapiens, UniProt P04049)", "assay": "Inhibition of c-RAF (unknown origin)"}, "[5]": {"assay": "Half life in plasma (unknown origin)", "assay_type": "ADME, cell-free"}, "[6]": {"tested_on": "Plasmodium falciparum", "assay": "Antimalarial activity against Plasmodium falciparum 3D7 incubated for 48 hrs by [3H]-hypoxanthine incorporation assay", "assay_type": "functional, organism-based"}, "[7]": {"tested_on": "Plasmodium falciparum", "assay": "Antimalarial activity against Plasmodium falciparum Dd2 incubated for 48 hrs by [3H]-hypoxanthine incorporation assay", "assay_type": "functional, organism-based"}, "[8]": {"tested_on": "Plasmodium berghei", "assay": "Antiparasitic activity against blood stage Plasmodium berghei ANKA infected in ARC mouse assessed as suppression of parasitemia at 32 mg/kg, sc administered twice daily with 6 hrs apart for 4 consecutive days by Giemsa staining based microscopic analysis relative to control"}, "[9]": {"target": "Metabotropic glutamate receptor 5 (Rattus norvegicus, UniProt P31424)", "sequence (P31424 whole entry)": "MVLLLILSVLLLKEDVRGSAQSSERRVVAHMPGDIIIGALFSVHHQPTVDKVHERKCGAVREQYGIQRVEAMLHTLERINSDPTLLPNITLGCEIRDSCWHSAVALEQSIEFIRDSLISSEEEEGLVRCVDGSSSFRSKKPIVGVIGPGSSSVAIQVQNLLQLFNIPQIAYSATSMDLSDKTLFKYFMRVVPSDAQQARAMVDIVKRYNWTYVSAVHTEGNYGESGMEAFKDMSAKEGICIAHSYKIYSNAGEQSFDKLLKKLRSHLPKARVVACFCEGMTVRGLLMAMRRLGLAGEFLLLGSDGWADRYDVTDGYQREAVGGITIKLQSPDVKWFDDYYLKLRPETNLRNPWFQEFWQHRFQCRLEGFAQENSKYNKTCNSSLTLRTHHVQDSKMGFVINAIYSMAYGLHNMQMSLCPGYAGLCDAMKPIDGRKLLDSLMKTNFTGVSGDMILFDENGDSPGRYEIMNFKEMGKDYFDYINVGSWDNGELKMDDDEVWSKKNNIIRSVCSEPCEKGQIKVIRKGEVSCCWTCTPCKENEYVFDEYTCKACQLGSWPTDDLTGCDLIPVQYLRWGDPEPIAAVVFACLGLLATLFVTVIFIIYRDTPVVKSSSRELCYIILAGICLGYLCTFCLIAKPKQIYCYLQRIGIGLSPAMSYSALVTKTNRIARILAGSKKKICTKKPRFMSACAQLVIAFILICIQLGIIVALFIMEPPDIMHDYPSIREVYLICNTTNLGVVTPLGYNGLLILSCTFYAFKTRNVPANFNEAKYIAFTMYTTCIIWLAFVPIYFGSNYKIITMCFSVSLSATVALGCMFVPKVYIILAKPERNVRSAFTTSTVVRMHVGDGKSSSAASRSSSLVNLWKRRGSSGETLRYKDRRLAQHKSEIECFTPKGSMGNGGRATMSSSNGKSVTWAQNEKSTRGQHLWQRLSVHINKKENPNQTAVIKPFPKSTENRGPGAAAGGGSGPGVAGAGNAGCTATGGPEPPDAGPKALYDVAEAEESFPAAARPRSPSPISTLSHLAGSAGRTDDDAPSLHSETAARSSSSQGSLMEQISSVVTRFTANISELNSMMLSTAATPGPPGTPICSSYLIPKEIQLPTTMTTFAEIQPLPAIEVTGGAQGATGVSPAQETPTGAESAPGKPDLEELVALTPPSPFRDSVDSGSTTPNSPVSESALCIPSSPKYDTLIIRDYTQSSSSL", "assay": "Inhibition of rat mGluR5 expressed in HEK293A cells preincubated for 140 secs followed by EC20 glutamate stimulation for 74 secs and subsequent EC80 glutamate addition and measured up to 40 secs by Fluo-4-AM dye based fluorescence assay", "assay_type": "cell-based"}, "[10]": {"target": "Metabotropic glutamate receptor 1 (Homo sapiens, UniProt Q13255)", "sequence (Q13255 whole entry)": "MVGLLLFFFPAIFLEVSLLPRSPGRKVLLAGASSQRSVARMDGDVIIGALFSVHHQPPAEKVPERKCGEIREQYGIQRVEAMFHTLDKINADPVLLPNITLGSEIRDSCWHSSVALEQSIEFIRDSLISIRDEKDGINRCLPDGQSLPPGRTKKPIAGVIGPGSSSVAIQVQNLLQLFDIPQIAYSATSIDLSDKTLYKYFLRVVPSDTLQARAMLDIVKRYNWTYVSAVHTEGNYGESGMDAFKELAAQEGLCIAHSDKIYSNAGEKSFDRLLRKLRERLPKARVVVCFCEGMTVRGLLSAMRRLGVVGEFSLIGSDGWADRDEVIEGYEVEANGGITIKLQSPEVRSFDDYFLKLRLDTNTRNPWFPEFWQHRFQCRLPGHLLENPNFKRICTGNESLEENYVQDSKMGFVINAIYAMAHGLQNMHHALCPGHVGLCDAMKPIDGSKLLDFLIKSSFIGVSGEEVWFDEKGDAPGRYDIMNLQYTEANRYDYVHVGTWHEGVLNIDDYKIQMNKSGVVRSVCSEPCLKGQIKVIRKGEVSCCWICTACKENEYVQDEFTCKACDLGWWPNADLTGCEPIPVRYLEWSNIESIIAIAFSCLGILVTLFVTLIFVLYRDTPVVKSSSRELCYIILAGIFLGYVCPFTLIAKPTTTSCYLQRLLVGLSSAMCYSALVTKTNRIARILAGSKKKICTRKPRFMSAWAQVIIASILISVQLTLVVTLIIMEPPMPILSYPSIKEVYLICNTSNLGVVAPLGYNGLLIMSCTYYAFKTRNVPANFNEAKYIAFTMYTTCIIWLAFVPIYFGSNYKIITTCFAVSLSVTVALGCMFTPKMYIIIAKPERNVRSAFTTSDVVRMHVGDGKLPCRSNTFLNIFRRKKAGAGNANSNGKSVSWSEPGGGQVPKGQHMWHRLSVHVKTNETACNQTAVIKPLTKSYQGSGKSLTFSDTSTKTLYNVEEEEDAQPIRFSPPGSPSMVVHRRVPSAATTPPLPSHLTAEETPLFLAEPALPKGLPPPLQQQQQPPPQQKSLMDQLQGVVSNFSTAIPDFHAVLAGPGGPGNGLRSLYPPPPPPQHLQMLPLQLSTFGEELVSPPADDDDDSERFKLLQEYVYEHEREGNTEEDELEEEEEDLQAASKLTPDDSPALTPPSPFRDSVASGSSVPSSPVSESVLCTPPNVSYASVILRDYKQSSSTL", "assay": "Inhibition of mGluR1 (unknown origin)"}, "[11]": {"target": "Metabotropic glutamate receptor 2 (Homo sapiens, UniProt Q14416)", "assay": "Inhibition of mGluR2 (unknown origin)"}, "[12]": {"target": "Metabotropic glutamate receptor 3 (Homo sapiens, UniProt Q14832)", "assay": "Inhibition of mGluR3 (unknown origin)"}, "[13]": {"target": "Metabotropic glutamate receptor 4 (Homo sapiens, UniProt Q14833)", "sequence (Q14833 whole entry)": "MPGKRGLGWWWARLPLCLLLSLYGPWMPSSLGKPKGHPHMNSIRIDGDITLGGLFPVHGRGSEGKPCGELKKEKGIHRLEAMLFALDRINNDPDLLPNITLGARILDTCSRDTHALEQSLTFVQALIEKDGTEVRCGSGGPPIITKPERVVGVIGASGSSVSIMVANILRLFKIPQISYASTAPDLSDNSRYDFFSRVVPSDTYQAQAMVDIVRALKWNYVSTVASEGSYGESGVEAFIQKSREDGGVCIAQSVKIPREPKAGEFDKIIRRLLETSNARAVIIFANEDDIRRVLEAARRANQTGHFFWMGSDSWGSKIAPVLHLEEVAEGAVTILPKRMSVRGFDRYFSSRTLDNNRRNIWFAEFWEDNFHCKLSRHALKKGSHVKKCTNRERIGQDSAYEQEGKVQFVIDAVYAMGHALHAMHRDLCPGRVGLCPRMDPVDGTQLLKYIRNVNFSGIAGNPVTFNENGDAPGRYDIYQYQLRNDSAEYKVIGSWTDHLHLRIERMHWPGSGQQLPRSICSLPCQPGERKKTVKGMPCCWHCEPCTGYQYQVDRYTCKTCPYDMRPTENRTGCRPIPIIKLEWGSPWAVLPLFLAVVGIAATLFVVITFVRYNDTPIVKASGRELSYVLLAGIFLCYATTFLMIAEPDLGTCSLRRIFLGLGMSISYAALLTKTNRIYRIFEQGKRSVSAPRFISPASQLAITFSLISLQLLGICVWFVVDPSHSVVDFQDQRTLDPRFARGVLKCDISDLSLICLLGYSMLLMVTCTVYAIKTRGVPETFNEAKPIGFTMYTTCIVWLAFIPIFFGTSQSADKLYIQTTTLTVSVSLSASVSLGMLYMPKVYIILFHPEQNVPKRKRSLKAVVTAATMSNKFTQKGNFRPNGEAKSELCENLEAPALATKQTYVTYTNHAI", "assay": "Inhibition of mGluR4 (unknown origin)"}, "[14]": {"target": "Metabotropic glutamate receptor 7 (Homo sapiens, UniProt Q14831)", "sequence (Q14831 whole entry)": "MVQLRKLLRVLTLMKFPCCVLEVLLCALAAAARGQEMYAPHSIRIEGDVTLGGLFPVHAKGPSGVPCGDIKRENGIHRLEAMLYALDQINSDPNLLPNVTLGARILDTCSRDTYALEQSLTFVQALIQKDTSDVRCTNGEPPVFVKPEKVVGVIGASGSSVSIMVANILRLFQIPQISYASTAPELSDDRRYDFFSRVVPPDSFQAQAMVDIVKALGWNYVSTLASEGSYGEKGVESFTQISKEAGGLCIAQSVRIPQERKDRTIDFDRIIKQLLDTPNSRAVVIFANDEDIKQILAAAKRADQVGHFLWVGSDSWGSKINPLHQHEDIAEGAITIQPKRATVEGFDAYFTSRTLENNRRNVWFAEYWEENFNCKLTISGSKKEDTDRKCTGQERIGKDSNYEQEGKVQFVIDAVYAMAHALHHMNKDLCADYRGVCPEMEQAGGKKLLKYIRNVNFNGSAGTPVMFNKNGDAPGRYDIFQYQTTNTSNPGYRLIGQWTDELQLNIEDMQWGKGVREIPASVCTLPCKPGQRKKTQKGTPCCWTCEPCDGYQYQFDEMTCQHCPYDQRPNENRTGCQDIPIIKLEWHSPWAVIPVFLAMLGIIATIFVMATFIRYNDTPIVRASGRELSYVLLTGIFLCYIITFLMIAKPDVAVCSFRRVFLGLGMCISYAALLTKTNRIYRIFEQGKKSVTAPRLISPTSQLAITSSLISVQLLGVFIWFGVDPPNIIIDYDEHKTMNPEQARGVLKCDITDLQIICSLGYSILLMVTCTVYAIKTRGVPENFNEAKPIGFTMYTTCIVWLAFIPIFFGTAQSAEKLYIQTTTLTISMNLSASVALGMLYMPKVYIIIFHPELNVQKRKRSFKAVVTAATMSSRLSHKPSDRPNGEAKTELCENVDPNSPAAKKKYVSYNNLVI", "assay": "Inhibition of mGluR7 (unknown origin)"}, "[15]": {"target": "Metabotropic glutamate receptor 8 (Homo sapiens, UniProt O00222)", "assay": "Inhibition of mGluR8 (unknown origin)"}, "[16]": {"tested_on": "LoVo", "assay": "Antiproliferative activity against human LoVo cells after 72 hrs by CCK8 assay", "assay_type": "functional, cell-based"}, "[17]": {"tested_on": "HT-29", "assay": "Antiproliferative activity against human HT-29 cells after 72 hrs by CCK8 assay", "assay_type": "functional, cell-based", "details": "HT-29, 72 h"}, "[18]": {"target": "DNA gyrase subunit B (Escherichia coli, UniProt P0AES6)", "assay": "Inhibition of Escherichia coli DNA gyrase B incubated for 60 mins by malachite green dye based spectrometric analysis"}, "[19]": {"assay": "Inhibition of Escherichia coli DNA topoisomerase 4 incubated for 60 mins by malachite green dye based spectrometric analysis"}}, "data": [{"smiles": "CN(C)C(=O)N[C@H]1CC[C@H](CCN2CCN(c3cccc(Cl)c3Cl)CC2)CC1", "note": "[CARIPRAZINE]", "values": [{"measurement": "half-life", "setting": "[1]", "result": "48 to 120", "unit": "h"}]}, {"smiles": "CC(C)CN(C[C@@H](O)[C@H](Cc1ccccc1)NC(=O)[C@H](CC(N)=O)NC(=O)c1ccc2ccccc2n1)C(=O)NC(C)(C)C", "values": [{"measurement": "IC50", "setting": "[2]", "result": 0.0063, "unit": "µM"}]}, {"smiles": "CNC(=O)c1cc(Oc2cccc3nc(NC(=O)Nc4ccc(Cl)c(C(F)(F)F)c4)ccc23)ccn1", "values": [{"measurement": "IC50", "setting": "[3]", "result": 0.316, "unit": "µM"}, {"measurement": "IC50", "setting": "[4]", "result": 0.061, "unit": "µM"}]}, {"smiles": "CC(C)c1nc(CN(C)C(=O)N[C@H](C(=O)N[C@@H](Cc2ccccc2)C[C@H](O)[C@H](Cc2ccccc2)NC(=O)OCc2cncs2)C(C)C)cs1", "note": "[RITONAVIR]", "values": [{"measurement": "half-life", "setting": "[5]", "result": 1.2, "unit": "h"}]}, {"smiles": "CCCCNC(=O)NCCc1c[nH]c2c1C(=O)C1=C(NC=CS1(=O)=O)C2=O", "values": [{"measurement": "IC50", "setting": "[6]", "result": 0.644, "unit": "µM"}, {"measurement": "IC50", "setting": "[7]", "result": 0.525, "unit": "µM"}, {"measurement": "Activity", "setting": "[8]", "result": 26, "unit": "%"}]}, {"smiles": "N#Cc1cc(F)cc(NC(=O)Nc2ccc(Cl)cn2)c1", "values": [{"measurement": "IC50", "setting": "[9]", "result": 0.013, "unit": "µM"}, {"measurement": "IC50", "setting": "[10]", "result": "> 30", "unit": "µM"}, {"measurement": "IC50", "setting": "[11]", "result": "> 30", "unit": "µM"}, {"measurement": "IC50", "setting": "[12]", "result": "> 30", "unit": "µM"}, {"measurement": "IC50", "setting": "[13]", "result": "> 30", "unit": "µM"}, {"measurement": "IC50", "setting": "[14]", "result": "> 30", "unit": "µM"}, {"measurement": "IC50", "setting": "[15]", "result": "> 30", "unit": "µM"}]}, {"smiles": "N#Cc1cc(O)ccc1-c1ccc(NC(=O)Nc2ccc(Cl)c(C(F)(F)F)c2)cc1", "values": [{"measurement": "IC50", "setting": "[16]", "result": 1.5, "unit": "µM"}, {"measurement": "IC50", "setting": "[17]", "result": 1.9, "unit": "µM"}]}, {"smiles": "CCNC(=O)Nc1nc2cc(-c3cnc(N4CCC(C(=O)O)CC4)nc3)cc(-c3ccccn3)c2s1", "values": [{"measurement": "IC50", "setting": "[18]", "result": "< 0.199", "unit": "µM"}, {"measurement": "IC50", "setting": "[19]", "result": "< 0.1", "unit": "mg/L"}]}]}
